Results taken from patent publication US8883963B2 (Cadila Healthcare Limited, priority 2007, dated 2014).

Assays:
[1] = test system: C57BL/6J mice (mild hyperglycemic); experiment: In vivo glucose reduction, acute single dose 120-min time-course, i.p. route; parameters: species or system mouse; unit not given here; conditions: male C57BL/6J mice
Method: All the animal experiments were carried out according to the internationally valid guidelines following approval by the ‘Zydus Research Center animal ethical committee’.
Two days prior to the study, the animals were randomised and divided into 5 groups (n=6), based upon their fed glucose levels. On the day of experiment, food was withdrawn from all the cages, water was given ad-libitum and were kept for overnight fasting. Vehicle (normal saline)/test/standard compounds were administered intraperitoneally (i.p.) or orally, on a body weight basis.
Blood samples were centrifuged and the separated serum was immediately subjected for the glucose estimation. Serum for insulin estimation was stored at −70° C. until used for the insulin estimation. The glucose estimation was carried out with DPEC-GOD/POD method (Ranbaxy Fine Chemicals Limited, Diagnostic division, India), using Spectramax-190, in 96-microwell plate reader (Molecular devices Corporation, Sunnyvale, Calif.). […] The AUC and BCAUC obtained from graphs were analyzed for one way ANOVA, followed by Dunnett's post test, using Graph Pad prism software. Furthermore, the insulin estimation was carried out using rat/mouse insulin ELISA kit (Linco research, Missouri USA).

[2] = biological target: T1, human glucagon receptor (Homo sapiens, UniProt P47871); experiment: In vitro human glucagon antagonist activity (inhibition of cAMP production) in CHO/human glucagon R cells; format: cell-based; conditions: with saturated concentration of glucagon peptide
T1 construct: The full-length cDNA was cloned in pcDNA3.1 (Invitrogen); expressed in transfected cells

[3] = Stability in human plasma; format: in vitro ADME; conditions: 2 μM peptidomimetic, pooled human plasma, 37° C.; for half-life at 2 μM: pH 7.8, read-out: half-life (t1/2) when incubated with human plasma
Method: (§1) Reactions were terminated by the addition of TFA/H2O (15 mL, 10% (v/v)). […] The column was equilibrated with TFA/H20, at a flow rate of 1 mL/min.

[4] = biological target: DPP IV (Homo sapiens, UniProt P27487); experiment: Stability against DPP IV enzyme; format: in vitro ADME; conditions: 37° C.; for % degradation of peptidomimetics in 24 h when incubated with DPP-IV enzyme: 2 μM peptidomimetic; for half-life at 2 μM: DPP IV enzyme, pH 7.8, 2 μM peptidomimetic, read-out: half-life (t1/2) when incubated with DPP-IV enzyme
Method: as §1

[5] = Stability in simulated intestinal fluid; format: in vitro ADME; conditions: 2 μM peptidomimetic, simulated intestinal fluid pH 7.5, 37° C.; for half-life at 2 μM: read-out: half-life (t1/2) when incubated with simulated intestinal fluid
Method: as §1

[6] = test system: RIN5F (Rat Insulinoma) cells; experiment: In vitro glucose-dependent insulin secretion (RIN5F cell assay screening protocol); format: cell-based; conditions: 16.7 mM glucose load
[7] = biological target: T2, Human GLP-1 receptor (Homo sapiens, UniProt P43220); experiment: In vitro Human GLP-1 R agonist activity (cyclic AMP determination) in CHO/human GLP1R cells; format: cell-based
T2 construct: The full-length cDNA was cloned in pcDNA3.1(+); expressed in transfected cells

[8] = Stability in simulated gastric fluid; format: in vitro ADME; conditions: 2 μM peptidomimetic, simulated gastric fluid pH 1.5, 37° C.; for half-life at 2 μM: read-out: half-life (t1/2) when incubated with simulated gastric fluid
Method: as §1

[9] = Stability in liver microsomes; format: in vitro ADME; conditions: 2 μM peptidomimetic, human liver microsomes, 37° C.
Method: as §1

DPP IV, sequence (P27487 whole entry, species assumed): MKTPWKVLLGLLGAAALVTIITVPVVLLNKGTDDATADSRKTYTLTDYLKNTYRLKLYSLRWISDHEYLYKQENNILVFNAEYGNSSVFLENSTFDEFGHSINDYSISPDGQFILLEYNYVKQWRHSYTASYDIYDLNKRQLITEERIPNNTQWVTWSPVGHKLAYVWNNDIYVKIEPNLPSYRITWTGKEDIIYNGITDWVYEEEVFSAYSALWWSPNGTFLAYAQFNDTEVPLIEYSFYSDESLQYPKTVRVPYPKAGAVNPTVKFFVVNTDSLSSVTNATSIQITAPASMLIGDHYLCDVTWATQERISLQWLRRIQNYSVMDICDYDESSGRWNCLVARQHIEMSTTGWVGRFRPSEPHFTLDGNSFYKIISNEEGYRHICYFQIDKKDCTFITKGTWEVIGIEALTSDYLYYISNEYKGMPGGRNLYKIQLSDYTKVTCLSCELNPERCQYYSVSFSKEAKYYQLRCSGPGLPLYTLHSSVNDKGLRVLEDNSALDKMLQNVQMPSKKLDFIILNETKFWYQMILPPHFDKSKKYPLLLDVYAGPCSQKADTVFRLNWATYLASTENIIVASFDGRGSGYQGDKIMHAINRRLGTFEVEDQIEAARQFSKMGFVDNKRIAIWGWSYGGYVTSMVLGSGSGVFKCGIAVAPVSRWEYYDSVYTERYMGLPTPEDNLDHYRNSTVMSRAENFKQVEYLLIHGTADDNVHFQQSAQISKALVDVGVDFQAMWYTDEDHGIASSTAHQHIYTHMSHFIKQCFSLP
T1 sequence (P47871 26-477): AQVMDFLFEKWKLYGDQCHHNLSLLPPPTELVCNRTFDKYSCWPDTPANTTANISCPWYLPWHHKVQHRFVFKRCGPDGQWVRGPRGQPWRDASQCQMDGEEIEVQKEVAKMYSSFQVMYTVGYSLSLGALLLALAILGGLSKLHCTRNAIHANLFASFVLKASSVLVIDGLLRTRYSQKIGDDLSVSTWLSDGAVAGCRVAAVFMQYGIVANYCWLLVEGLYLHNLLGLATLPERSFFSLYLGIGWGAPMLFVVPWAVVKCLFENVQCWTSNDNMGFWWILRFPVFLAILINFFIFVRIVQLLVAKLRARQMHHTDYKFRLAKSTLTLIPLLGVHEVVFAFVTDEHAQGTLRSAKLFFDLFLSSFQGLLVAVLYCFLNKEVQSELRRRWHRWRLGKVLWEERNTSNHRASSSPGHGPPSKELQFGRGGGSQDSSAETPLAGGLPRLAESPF
T2 sequence (P43220 24-463): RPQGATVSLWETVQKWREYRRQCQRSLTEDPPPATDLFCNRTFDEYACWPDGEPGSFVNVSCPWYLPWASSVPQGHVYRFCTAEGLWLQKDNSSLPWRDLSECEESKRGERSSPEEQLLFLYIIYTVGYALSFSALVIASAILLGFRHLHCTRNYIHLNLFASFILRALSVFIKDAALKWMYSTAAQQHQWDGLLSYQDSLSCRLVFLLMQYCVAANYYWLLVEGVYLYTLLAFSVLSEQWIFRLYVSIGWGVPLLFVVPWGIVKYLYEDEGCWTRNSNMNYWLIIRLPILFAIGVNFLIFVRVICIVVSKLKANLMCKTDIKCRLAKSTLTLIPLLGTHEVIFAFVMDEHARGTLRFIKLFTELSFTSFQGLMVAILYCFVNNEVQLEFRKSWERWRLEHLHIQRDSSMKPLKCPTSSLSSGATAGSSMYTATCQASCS

CCc1cc(OC)ccc1-c1ccc(CC(C(=O)N(C)C(CCCc2ccccc2F)C(N)=O)N(C)C(=O)[C@H](CC(=O)O)N(C)C(=O)[C@H](CO)NC(=O)[C@@H](NC(=O)C(C)(Cc2ccccc2F)NC(=O)[C@@H](NC(=O)CNC(=O)C(CCC#N)NC(=O)C(C)(C)NC(=O)[C@@H](N)Cc2c[nH]cn2)[C@H](C)O)[C@H](C)O)cc1 (single isomer, unassigned) [Seq. ID. 156]
blood glucose levels ([1]; 30 nM/kg i.p., 0 min): 180 ± 3.2
blood glucose levels ([1]; 30 nM/kg i.p., 30 min): 119 ± 3.2
blood glucose levels ([1]; 30 nM/kg i.p., 60 min): 117 ± 3.1
blood glucose levels ([1]; 30 nM/kg i.p., 120 min): 118 ± 1.8

CCc1cc(OC)ccc1-c1ccc(CC(CNC(CCCc2ccccc2F)C(N)=O)NC(=O)[C@H](CC(=O)O)NC(=O)[C@H](CO)NC(=O)[C@@H](NC(=O)C(C)(Cc2ccccc2F)NC(=O)[C@@H](NC(=O)CNC(=O)C(CCC#N)NC(=O)C(C)(C)NC(=O)[C@@H](N)Cc2c[nH]cn2)[C@H](C)O)[C@H](C)O)cc1 (single isomer, unassigned) [Seq. ID. 192]
blood glucose levels ([1]; 10 nM/kg i.p., 0 min): 180 ± 2.5
blood glucose levels ([1]; 10 nM/kg i.p., 30 min): 110 ± 2.6
blood glucose levels ([1]; 10 nM/kg i.p., 60 min): 111 ± 3.2
blood glucose levels ([1]; 10 nM/kg i.p., 120 min): 112 ± 2.3

CCc1cc(OC)ccc1-c1ccc(CC(CNC(CCCc2ccccc2)C(N)=O)NC[C@H](CC(=O)O)NC(=O)[C@H](CO)NC(=O)[C@@H](NC(=O)C(C)(Cc2ccccc2F)NC(=O)[C@@H](NC(=O)CNC(=O)[C@H](CCC(N)=O)NC(=O)C(C)(C)NC(=O)[C@H](Cc2c[nH]cn2)NC(=O)OC)[C@@H](C)O)[C@@H](C)O)cc1 (single isomer, unassigned) [Seq. ID. 194]
blood glucose levels ([1]; 10 nM/kg i.p., 0 min): 183 ± 2.2
blood glucose levels ([1]; 10 nM/kg i.p., 30 min): 113 ± 2.8
blood glucose levels ([1]; 10 nM/kg i.p., 60 min): 113 ± 2.9
blood glucose levels ([1]; 10 nM/kg i.p., 120 min): 114 ± 2.0

CCc1cc(OC)ccc1-c1ccc(CC(CNC(CCCc2ccccc2F)C(N)=O)NC[C@H](CC(=O)O)NC(=O)[C@H](CO)NC(=O)[C@@H](NC(=O)C(C)(Cc2ccccc2F)NC(=O)[C@@H](NC(=O)CNC(=O)[C@H](CCC(N)=O)NC(=O)C(C)(C)NC(=O)[C@H](Cc2c[nH]cn2)NC(C)=O)[C@@H](C)O)[C@@H](C)O)cc1 (single isomer, unassigned) [Seq. ID. 195]
blood glucose levels ([1]; 10 nM/kg i.p., 0 min): 182 ± 2.3
blood glucose levels ([1]; 10 nM/kg i.p., 30 min): 110 ± 2.3
blood glucose levels ([1]; 10 nM/kg i.p., 60 min): 112 ± 3.0
blood glucose levels ([1]; 10 nM/kg i.p., 120 min): 112 ± 1.9

CCc1cc(OC)ccc1-c1ccc(CC(CNC(CCCc2ccccc2F)C(N)=O)NC[C@H](CC(=O)O)NC(=O)[C@H](CO)NC(=O)[C@@H](NC(=O)C(C)(Cc2ccccc2F)NC(=O)[C@@H](NC(=O)CNC(=O)[C@H](CCC(N)=O)NC(=O)C(C)(C)NC(=O)[C@H](Cc2c[nH]cn2)NC(=O)OC)[C@@H](C)O)[C@@H](C)O)cc1 (single isomer, unassigned) [Seq. ID. 196]
blood glucose levels ([1]; 50 nM/kg i.p., 0 min): 181 ± 2.5
blood glucose levels ([1]; 50 nM/kg i.p., 30 min): 111 ± 3.4
blood glucose levels ([1]; 50 nM/kg i.p., 60 min): 113 ± 3.1
blood glucose levels ([1]; 50 nM/kg i.p., 120 min): 110 ± 1.8

CCc1cc(OC)ccc1-c1ccc(CC(CNC(CCCc2ccccc2)C(N)=O)NC[C@H](CC(=O)O)NC(=O)[C@H](CO)NC(=O)[C@@H](NC(=O)C(C)(Cc2ccccc2F)NC(=O)[C@@H](NC(=O)CNC(=O)[C@H](CCC(N)=O)NC(=O)C(C)(C)NC(=O)[C@H](Cc2c[nH]cn2)NC(C)=O)[C@H](C)O)[C@H](C)O)cc1 (single isomer, unassigned) [Seq. ID. 197]
blood glucose levels ([1]; 50 nM/kg i.p., 0 min): 180 ± 4.2
blood glucose levels ([1]; 50 nM/kg i.p., 30 min): 113 ± 3.2
blood glucose levels ([1]; 50 nM/kg i.p., 60 min): 112 ± 2.4
blood glucose levels ([1]; 50 nM/kg i.p., 120 min): 110 ± 1.9

CCc1cc(OC)ccc1-c1ccc(CC(CNC(CCCc2ccccc2)C(N)=O)NC[C@H](CC(=O)O)NC(=O)[C@H](CO)NC(=O)[C@@H](NC(=O)C(C)(Cc2ccccc2F)NC(=O)[C@@H](NC(=O)CNC(=O)C(CCC#N)NC(=O)C(C)(C)NC(=O)[C@@H](N)Cc2c[nH]cn2)[C@H](C)O)[C@H](C)O)cc1 (single isomer, unassigned) [compound 202]
Human Glucagon receptor antagonistic activity shown as inhibition of cAMP production of Glucagon peptide ([2]; 1 nM test compound): 9 ± 0.14 pmol/ml/μg prt
Human Glucagon receptor antagonistic activity shown as inhibition of cAMP production of Glucagon peptide ([2]; 10 nM test compound): 6 ± 0.14 pmol/ml/μg prt
Human Glucagon receptor antagonistic activity shown as inhibition of cAMP production of Glucagon peptide ([2]; 100 nM test compound): 5 ± 0.13 pmol/ml/μg prt
Human Glucagon receptor antagonistic activity shown as inhibition of cAMP production of Glucagon peptide ([2]; 1 μM test compound): 3 ± 0.24 pmol/ml/μg prt
Human Glucagon receptor antagonistic activity shown as inhibition of cAMP production of Glucagon peptide ([2]; 10 μM test compound): 0 pmol/ml/μg prt
% degradation of peptidomimetics in 24 h when incubated with human plasma [3]: 00%
half-life at 2 μM [3]: > 24 h
% degradation of peptidomimetics in 24 h when incubated with DPP-IV enzyme [4]: 00%
half-life at 2 μM [4]: > 24 h
% degradation of peptidomimetics in 24 h when incubated with simulated intestinal fluid [5]: 00%
half-life at 2 μM [5]: > 24 h
Insulin secretion ([6]; 0.1 nM test compd.): 16.8 ± 0.20 pg/µg/h
Insulin secretion ([6]; 1 nM test compd.): 22.7 ± 0.29 pg/µg/h
Insulin secretion ([6]; 10 nM test compd.): 36.6 ± 0.31 pg/µg/h
Human GLP-1 R activity (cAMP release), % activity with respect to control ([7]; 1 nM test compound): 99 ± 0.12%
Human GLP-1 R activity (cAMP release), % activity with respect to control ([7]; 10 nM test compound): 99 ± 0.15%
Human GLP-1 R activity (cAMP release), % activity with respect to control ([7]; 100 nM test compound): 99 ± 0.18%
Human GLP-1 R activity (cAMP release), % activity with respect to control ([7]; 1 μM test compound): 99 ± 0.03%
Human GLP-1 R activity (cAMP release), % activity with respect to control ([7]; 10 μM test compound): 99 ± 0.09%
% degradation of peptidomimetics in 24 h when incubated with simulated gastric fluid [8]: 00%
half-life at 2 μM [8]: > 24 h
half-life (t1/2) when incubated with liver microsomes [9]: (5) h
% degradation of peptidomimetics in 24 h when incubated with liver microsomes [9]: 33%

CCc1cc(OC)ccc1-c1ccc(CC(NC(=O)[C@H](CC(=O)O)NC(=O)[C@H](CO)NC(=O)[C@@H](NC(=O)C(C)(Cc2ccccc2F)NC(=O)[C@@H](NC(=O)CNC(=O)C(CCC#N)NC(=O)C(C)(C)NC(=O)[C@H](Cc2c[nH]cn2)NC(=O)OC)[C@@H](C)O)[C@@H](C)O)C(=O)NC(CCCc2ccccc2)C(N)=O)cc1 (single isomer, unassigned) [compound 206]
Human Glucagon receptor antagonistic activity shown as inhibition of cAMP production of Glucagon peptide ([2]; 1 nM test compound): 0 pmol/ml/μg prt
Human Glucagon receptor antagonistic activity shown as inhibition of cAMP production of Glucagon peptide ([2]; 10 nM test compound): 0 pmol/ml/μg prt
Human Glucagon receptor antagonistic activity shown as inhibition of cAMP production of Glucagon peptide ([2]; 100 nM test compound): 0 pmol/ml/μg prt
Human Glucagon receptor antagonistic activity shown as inhibition of cAMP production of Glucagon peptide ([2]; 1 μM test compound): 0 pmol/ml/μg prt
Human Glucagon receptor antagonistic activity shown as inhibition of cAMP production of Glucagon peptide ([2]; 10 μM test compound): 0 pmol/ml/μg prt
% degradation of peptidomimetics in 24 h when incubated with human plasma [3]: 00%
half-life at 2 μM [3]: > 24 h
% degradation of peptidomimetics in 24 h when incubated with DPP-IV enzyme [4]: 00%
half-life at 2 μM [4]: > 24 h
% degradation of peptidomimetics in 24 h when incubated with simulated intestinal fluid [5]: 00%
half-life at 2 μM [5]: > 24 h
Insulin secretion ([6]; 0.1 nM test compd.): 12.1 ± 0.42 pg/µg/h
Insulin secretion ([6]; 1 nM test compd.): 14.6 ± 0.41 pg/µg/h
Insulin secretion ([6]; 10 nM test compd.): 27.8 ± 0.46 pg/µg/h
Human GLP-1 R activity (cAMP release), % activity with respect to control ([7]; 1 nM test compound): 39 ± 0.12%
Human GLP-1 R activity (cAMP release), % activity with respect to control ([7]; 10 nM test compound): 80 ± 0.15%
Human GLP-1 R activity (cAMP release), % activity with respect to control ([7]; 100 nM test compound): 86 ± 0.18%
Human GLP-1 R activity (cAMP release), % activity with respect to control ([7]; 1 μM test compound): 95 ± 0.03%
Human GLP-1 R activity (cAMP release), % activity with respect to control ([7]; 10 μM test compound): 98 ± 0.09%
% degradation of peptidomimetics in 24 h when incubated with simulated gastric fluid [8]: 00%
half-life at 2 μM [8]: > 24 h
half-life (t1/2) when incubated with liver microsomes [9]: (5) h
% degradation of peptidomimetics in 24 h when incubated with liver microsomes [9]: 32%
